We go through 10 compounds from ChEMBL document CHEMBL1201862, “PubChem BioAssay data set” (2004).

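All cell lines were grown in 96-well plates and treated with compound for 48 hours. GI50: concentration for 50% inhibition of growth.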 Calls of active or inactive are those of the source. Rule as the data show it: active = GI50 up to about 1.1 µM and inactive = higher. Starred links: 1 amine or outer side, 2 acyl side, 3 side chain; linkers in the order of their positions; H or OH if unused. Positions of bridges follow the written chain, without caps; N, C: chain ends. Non-standard residues stand in square brackets, D forms with d. Residues, ends and D or L forms follow the SMILES beside them. *: point of attachment. X40 = CC[C@H](C)[C@@H](N[*:1])[C@@H](O)CC(=O)[*:2]; NMeY = CN[C@@H](Cc1ccc(O)cc1)C(=O)O; dNMeL = CN[C@H](CC(C)C)C(=O)O; Hiv = CC(C)[C@H](O)C(=O)O; Pyruvoyl = CC(=O)C(=O)* Some results are limits rather than exact numbers.

What all share (assay): NCI tumour cell line growth inhibition, 48 h
For assay [1], the system named is SR.
In assay [2] the test system is SNB-75.
In assay [3] the test system is PC-3.
The subject of assay [4] is SK-MEL-28.
In assay [5] the test system is T47D.
Assay [6] concerns A498.
Assay [7] has as its system BT-549.
Assay [8] concerns MCF7.
Assay [9] relates to MDA-MB-231.
Assay [10] relates to NCI-H460.
For assay [11], the system named is CCRF-CEM.
Assay [12] has as its system SK-OV-3.
For assay [13], the system named is MDA-N.
Assay [14] relates to HL-60.
In assay [15] the test system is NCI/ADR-RES.
Assay [16] relates to OVCAR-8.
Assay [17] relates to Hs-578T.
Assay [18] concerns SF-539.
Assay [19] has as its system HCT-15.
In assay [20] the test system is MOLT-4.

In the case of `CC[C@H](C)[C@H]1NC(=O)[C@@H](NC(=O)[C@@H](CC(C)C)N(C)C(=O)[C@@H]2CCCN2C(=O)C(C)=O)[C@@H](C)OC(=O)[C@H](Cc2ccc(OC)cc2)N(C)C(=O)[C@@H]2CCCN2C(=O)[C@H](CC(C)C)NC(=O)[C@H](C(C)C)OC(=O)C[C@@H]1O` (Pyruvoyl-P[dNMeL]T[X40][Hiv]LP[NMeY](Me); ester 3-C), the GI50 was 0.001 µM (active) in assay [1]; 0.00482 µM (active) in assay [2]; 0.0046 µM (active) in [3]; 0.005 µM (active) in assay [4]; 0.00404 µM (active) in assay [5]; 0.00538 µM (active) in [6]. The GI50 is 0.00617 µM (active) in assay [7]; 0.00232 µM (active) in assay [8]; 0.0138 µM (active) in assay [9]; 0.00429 µM (active) in assay [10]; 0.00224 µM (active) in assay [11]; 0.00528 µM (active) in [12]. Besides, the GI50 is 0.00467 µM (active) in [13]; 0.05 µM (active) in assay [14]; 0.226 µM (active) in assay [15]; 0.006 µM (active) in assay [16]; 0.00476 µM (active) in [17]; 0.00361 µM (active) in assay [18]. Also, the figures for the GI50 in [19] and in assay [20] were 0.0252 µM and 0.00423 µM (active), respectively.

With `CN(C)/C=N/S(=O)(=O)c1nn2c(C=O)c(-c3ccccc3)nc2s1`, the GI50 is 5.74 µM (inactive) in assay [1]; 59.7 µM (inactive) in assay [2]; 14.1 µM (inactive) in assay [3]; 9.2 µM (inactive) in assay [4]; 15.7 µM (inactive) in assay [5]; 67.6 µM (inactive) in [6]. In addition, the GI50 was 4.65 µM (inactive) in assay [7]; 4.93 µM (inactive) in assay [8]; 6.81 µM (inactive) in assay [9]; 20.8 µM (inactive) in assay [10]; 2.96 µM (inactive) in [11]; > 80.5 µM (inactive) in assay [12]. The GI50 was 10.2 µM (inactive) in assay [13]; 23.2 µM (inactive) in assay [15]; 8.41 µM (inactive) in [16]; 19.5 µM (inactive) in [17]; 17.7 µM (inactive) in [18]; 9.46 µM in assay [19]. In [20], the GI50 was 3.21 µM (inactive).

In the case of `CC(C)(C)c1cc(Br)c(O)c(CN(Cc2cc(C(C)(C)C)cc(Br)c2O)C2CCCCC2)c1`, the GI50 in [1] was 10.1 µM (inactive); in assay [2], 8.55 µM (inactive); in assay [3], 14.9 µM (inactive); in assay [4], 15.5 µM (inactive); in assay [5] it was 9.68 µM (inactive); in [6] it was 13.5 µM (inactive). In addition, the GI50 in assay [7] is 15.8 µM (inactive); in assay [8], 13.9 µM (inactive); in assay [9], 15 µM (inactive); in assay [11], 13.3 µM (inactive); in [12], 15.8 µM (inactive); in assay [13], 14.5 µM (inactive). For the same compound, the GI50 in [14] is 17.6 µM (inactive); in [15], 12 µM (inactive); in assay [16], 15.1 µM (inactive); in assay [17], 13.1 µM (inactive); in assay [19] it was 12.8 µM; in assay [20], 10.4 µM (inactive).

`O=C1C=C/C(=N/c2cccc3c(/N=C4/C=CC(=O)O4)cccc23)O1`: the GI50 is 19.8 µM (inactive) in assay [1]; > 100 µM (inactive) in assay [2]; 48 µM (inactive) in assay [3]; 28.3 µM (inactive) in assay [4]; 33.7 µM (inactive) in assay [5]; > 100 µM (inactive) in [6]. In addition, the GI50 was 86.3 µM (inactive) in assay [7]; 33.3 µM (inactive) in [8]; 69.5 µM (inactive) in [9]; > 100 µM (inactive) in assay [10]; > 100 µM (inactive) in assay [12]; 27.3 µM (inactive) in assay [13]. Moreover, the GI50 in assay [15] is 95.7 µM (inactive); in [16] it was 20 µM (inactive); in assay [17] it was > 100 µM (inactive); in assay [18], 19.1 µM (inactive); in [19] it was 37.3 µM; in assay [20] it was 3.72 µM (inactive).

For `CN(C)c1ccc2c(c1)oc(=O)c1ccccc12`, the GI50 in assay [1] is 3.2 µM (inactive); in assay [2], 17.8 µM (inactive); in [3], 15.7 µM (inactive); in assay [4], 17.5 µM (inactive); in assay [5], 12.2 µM (inactive); in [6] it was 15.8 µM (inactive). Also, the GI50 was 3.44 µM (inactive) in assay [7]; 5.08 µM (inactive) in [8]; 16.5 µM (inactive) in assay [9]; 10.4 µM (inactive) in assay [10]; 4.24 µM (inactive) in assay [11]; 6.27 µM (inactive) in assay [13]. Moreover, the GI50 in [14] was 3.69 µM (inactive); in [15], 14.1 µM (inactive); in assay [16] it was 11.1 µM (inactive); in [17], 17.5 µM (inactive); in assay [18] it was 14 µM (inactive); in assay [19] it was 12.6 µM. For the same compound, in assay [20], the GI50 was 16.9 µM (inactive).

Regarding `CN(C)C(=O)Oc1ccc[n+](C)c1` [PYRIDOSTIGMINE BROMIDE], the GI50 in assay [1] is 8.28 µM (inactive); in assay [2] it was > 100 µM (inactive); in [3] it was > 100 µM (inactive); in assay [4], > 100 µM (inactive); in assay [5], > 100 µM (inactive); in [6], > 100 µM (inactive). Also, the GI50 in assay [7], in assay [8], in [9], in assay [10], in [13] and in assay [14] was > 100 µM (inactive) in each case. For the same compound, the GI50 in [15] was > 100 µM (inactive); in assay [16], > 100 µM (inactive); in [17], > 100 µM (inactive); in assay [19], greater than 100 µM; in assay [20], > 100 µM (inactive).

As for `COc1ccc(/[N+]([O-])=C/c2ccc(OC(=S)S)c(OC)c2)cc1`, the GI50 in assay [1] was 15.6 µM (inactive); in [2], 16.3 µM (inactive); in assay [3] it was 42.4 µM (inactive); in [4], 52.2 µM (inactive); in [5], 28.6 µM (inactive); in assay [6], > 100 µM (inactive). Moreover, the GI50 in assay [7] is 26.2 µM (inactive); in assay [8] it was 5.58 µM (inactive); in assay [9], > 100 µM (inactive); in [10], > 100 µM (inactive); in [12], 47.1 µM (inactive); in assay [13], 21.3 µM (inactive). Also, the GI50 was 17.3 µM (inactive) in assay [14]; 22.7 µM (inactive) in [15]; 38.5 µM (inactive) in [16]; 34.4 µM (inactive) in [17]; 45.4 µM (inactive) in [18]; 22.2 µM in assay [19]. The GI50 in assay [20] is 33 µM (inactive).

Turning to `COC(OC)[C@@H]1OC[C@H](n2ccc(=O)[nH]c2=O)[C@H]1O`, the GI50 in assay [1], in assay [2], in assay [3], in [4], in assay [5] and in assay [6] was > 100 µM (inactive) throughout. The GI50 in assay [7], in assay [8], in [9], in assay [10], in assay [11] and in [12] was > 100 µM (inactive) each time. For the same compound, the GI50 in assay [13] is > 100 µM (inactive); in [15] it was > 100 µM (inactive); in assay [17], > 100 µM (inactive); in assay [18], > 100 µM (inactive); in [19], greater than 100 µM; in assay [20], > 100 µM (inactive).

For `S=C1Nc2ccccc2SC1c1ccccc1` (stereo not given), the GI50 in assay [1] was 30.2 µM (inactive); in assay [2], 23.6 µM (inactive); in [3] it was 57.9 µM (inactive); in assay [4] it was > 100 µM (inactive); in assay [5], 72.6 µM (inactive); in assay [7], > 100 µM (inactive). The GI50 in assay [8] is > 100 µM (inactive); in assay [9] it was 66.1 µM (inactive); in assay [10] it was > 100 µM (inactive); in assay [11], 2.96 µM (inactive); in assay [12], 35.8 µM (inactive); in [13] it was > 100 µM (inactive). Further, the GI50 in assay [14] is 5.22 µM (inactive); in assay [15], 56.1 µM (inactive); in assay [16], > 100 µM (inactive); in assay [17], 19.9 µM (inactive); in [19] it was greater than 100 µM; in assay [20], > 100 µM (inactive).

In the case of `CC1CC[C@]2(C(=O)O)CCC3(C)C(=C2[C@H]1C)C=CC1[C@@]2(C)CC[C@H](O)C(C)(C)C2CC[C@]13C` (stereo not given in full), the GI50 in assay [1] is 12.4 µM (inactive); in assay [2] it was 24.5 µM (inactive); in assay [3] it was 21.1 µM (inactive); in [4], 28.3 µM (inactive); in assay [5] it was 19.1 µM (inactive); in assay [7] it was 33.7 µM (inactive). Besides, the GI50 in assay [8] was 30 µM (inactive); in [9], 21.3 µM (inactive); in assay [10] it was 21.6 µM (inactive); in assay [11], 29.7 µM (inactive); in [12], 16.6 µM (inactive); in assay [13], 56.9 µM (inactive). Further, the GI50 in assay [14] was 18.6 µM (inactive); in [15], 36.6 µM (inactive); in [16], 27.7 µM (inactive); in assay [17] it was 26 µM (inactive); in [18], 17.3 µM (inactive); in assay [19] it was 27.4 µM. Further, in assay [20], the GI50 was 23.7 µM (inactive).
